Results from paper PMC12150210 (RSC Advances, 2025).

Molecular target: hCG (whole human chorionic gonadotropin) (Homo sapiens, UniProt P0DN86)
Assay: microscale thermophoresis
Format: binding

Kd: 4.6 ± 3 µM
Compound: CO[C@@]1(NC(=O)C2SC(=C(C(N)=O)C(=O)O)S2)C(=O)N2C(C(=O)O)=C(CSc3nnnn3C)CS[C@@H]21 (stereo partly drawn) [Cefotetan, (6R,7S)-7-[[4-(2-amino-1-carboxy-2-oxoethylidene)-1,3-dithietane-2-carbonyl]amino]-7-methoxy-3-[(1-methyltetrazol-5-yl)sulfanylmethyl]-8-oxo-5-thia-1-azabicyclo[4.2.0]oct-2-ene-2-carboxylic acid]
